Laboratory results taken from patent US7557123B2, “Heterocyclic compound and medicinal use thereof” (Kyoto Pharmaceutical Industries, Ltd., priority 2001, dated 2009).
In brackets after ≈: the same amount, converted by molar mass. One block for each compound: values may come before it.

What was measured:
[1] = test system: male KK-A^y mice; experiment: Hypoglycemic and hypolipidemic activity in spontaneously diabetic KK-Ay mice; type: in vivo; details: 10 mg/kg/day orally for 4 consecutive days, plasma 24 hours after final administration, non-fasting, vs control group
Procedure: Blood was drawn under a non-fasting state from the tail vein of male KK-A^y mice, and the glucose and triglyceride levels of the plasma were measured using commercially available assay kits (glucose CII-test WAKO and triglyceride G-test WAKO, Wako Pure Chemical Industries, Ltd.). The mice were grouped (5 mice per group) into a control group and an administration group, such that the mean and standard deviation of the body weight and the plasma glucose and plasma triglyceride levels in each group were nearly the same. The test compounds (compounds of Examples 1, 2, 4, 8, 20, 22, 24, 27, 30, 33, 36, 37, 40, 45, 47, 52, 56, 58 and 64) were suspended in 5% gum arabic solution and administered (10 mg/kg/day) orally to the administration group for 4 consecutive days. The 5% gumarabic solution was orally administered to the control group. Blood was drawn under a non-fasting state from the tail vein 24 hours after the final administration and the glucose and triglyceride levels of the plasma were measured. The decrease in the plasma glucose and triglyceride levels was calculated from the following formula. Decrease (%)=[(mean of control group−mean of test compound administration group)/mean of control group]×100 Results

[2] = test system: male db/db mice; experiment: Hypoglycemic and hypolipidemic activity in db/db mice; type: in vivo; details: 3 mg/kg/day orally for 2 consecutive weeks, plasma 24 hours after final administration, non-fasting, vs control group
Procedure: Using db/db mice genetically showing high plasma glucose, hypertriglyceridemia, insulin resistance and obesity, the pharmacological activity of the test compounds of Examples 1, 2 and 20 was examined.
Blood was drawn under a non-fasting state from the tail vein of male db/db mice, the glucose level and triglyceride level of the plasma were measured using commercially available assay kits (glucose CII-test WAKO and triglyceride G-test WAKO, Wako Pure Chemical Industries, Ltd.). The mice were grouped (6 mice per group) into a control group and test compound (compounds of Examples 1, 2 and 20) administration group (3 mg/kg/day), such that the mean and standard deviation of the body weight and the plasma glucose and plasma triglyceride levels in each group were nearly the same. The test compound was suspended in 0.5% methylcellulose solution and administered orally for 2 consecutive weeks from the next day. The 0.5% methylcellulose solution was orally administered to the control group. Blood was drawn under a non-fasting state from the tail vein 24 hours after the final administration and the glucose and triglyceride levels of the plasma were measured. The decrease in the plasma glucose and triglyceride levels was calculated from the following formula. Decrease (%)=[(mean of control group−mean of test compound administration group)/mean of control group]×100 Results

[3] = test system: male ICR mice; experiment: Toxicity by repeat administration in ICR mice; type: in vivo; details: 30 and 100 mg/kg/day orally for 2 consecutive weeks, vs control group; for plasma volume: calculated from Evans blue concentration; for weight of the heart / weight of the liver: wet weight
Procedure: Using 7-week-old male ICR mice, toxicity by repeat administration was examined.
The mice were grouped (7 mice per group) into a control group and test compound (compounds of Examples 2 and 20) administration groups (30 and 100 mg/kg/day), such that the mean and the standard deviation of the body weight of the mice were nearly the same. The test compound was suspended in 0.5% methylcellulose solution and administered orally for 2 consecutive weeks from the next day. The 0.5% methylcellulose solution was orally administered to the control group. At 24 hours after the final administration, Evans blue (100 μg/mouse) was administered from the tail vein and, 5 min later, the blood was drawn from the orbital venous plexus with anesthesia. Using EDTA-added blood, hematocrit value and erythrocyte count were measured. Using the plasma, Evans blue concentration was measured, from which plasma volume was calculated. The liver and heart were removed and wet weight was measured.

[4] = test system: female Wistar rats; experiment: Toxicity by repeat administration in Wistar rats; type: in vivo; details: 30 and 100 mg/kg/day orally for 2 consecutive weeks, vs control group; for ALT (GPT) / AST (GOT): serum; for weight of the heart / weight of the liver / weight of the white fat around the uterus: wet weight
Procedure: Using 6-week-old female Wistar rats, toxicity by repeat administration was examined.
The rats were grouped (6 rats per group) into a control group and test compound (compounds of Examples 2 and 20) administration groups (30 and 100 mg/kg/day), such that the mean and the standard deviation of the body weight of the rats were nearly the same. The test compound was suspended in 0.5% methylcellulose solution and administered orally for 2 consecutive weeks from the next day. The 0.5% methylcellulose solution was orally administered to the control group. The rats were fasted for 16 hr from the last day of administration, anesthetized by intraperitoneal administration of pentobarbital sodium (50 mg/kg) 24 hr after the final administration and the blood was drawn. Using EDTA-added blood, hematocrit value and erythrocyte count were measured, and using serum, AST (GOT) and ALT (GPT) were measured. In addition, the white fat around the uterus, and the liver and heart were removed and the wet weights thereof were measured.

[5] = Solubility of the compound in water (buffer pH 7.0); type: physicochemical; details: 25 mg in 1.0 ml buffer pH 7.0, shaken at 25° C. for 1 hr, filtrate by HPLC
Procedure: The pulverized test compound (compounds of Examples 2, 20, 22, 24, 27, 30, 40 or 65, 25 mg) was added to a buffer (1.0 ml, pH 7.0) and the mixture was shaken at 25° C. for 1 hr and passed through a membrane filter. The concentration of the test compound in the filtrate was measured by high performance liquid chromatography.

Solubility [5]: 10000 µg/mL (≈ 21.5 mM)
Structure (SMILES): CC=CC=CC(=O)N1Cc2cc(OCCc3nc(/C=C/CCC)oc3C)ccc2C[C@H]1C(=O)O (stereo in doubt) [Example 2, 2-(2,4-hexadienoyl)-7-[2-(5-methyl-2-(trans-1-penten-1-yl)oxazol-4-yl)ethoxy]-1,2,3,4-tetrahydroisoquinoline-(3S)-carboxylic acid]
Decrease (%) in glucose level [1]: 40.3%
Decrease (%) in triglyceride level [1]: 40.5%
Decrease (%) in glucose level [2]: 57.2%
Decrease (%) in triglyceride level [2]: 78.1%
plasma volume [3]: no significant difference
body weight [3]: no significant difference
erythrocyte count [3]: no significant difference
hematocrit value [3]: no significant difference
weight of the heart [3]: no significant difference
weight of the liver [3]: no significant difference
ALT (GPT) [4]: no significant difference
AST (GOT) [4]: no significant difference
erythrocyte count [4]: no significant difference
hematocrit value [4]: no significant difference
weight of the heart [4]: no significant difference
weight of the liver [4]: no significant difference
weight of the white fat around the uterus [4]: no significant difference

Structure (SMILES): CC(C)(C)N.CC=CC=CC(=O)N1Cc2cc(OCCc3nc(/C=C/CC(C)C)oc3C)ccc2C[C@H]1C(=O)O (stereo in doubt) [Example 20, tert-butylamine 2-(2,4-hexadienoyl)-7-{2-[5-methyl-2-(4-methyl-trans-1-penten-1-yl)oxazol-4-yl]ethoxy}-1,2,3,4-tetrahydroisoquinoline-(3S)-carboxylate]
Decrease (%) in glucose level [1]: 57.7%
Decrease (%) in triglyceride level [1]: 65.6%
Decrease (%) in glucose level [2]: 54.0%
Decrease (%) in triglyceride level [2]: 72.0%
plasma volume [3]: no significant difference
body weight [3]: no significant difference
erythrocyte count [3]: no significant difference
hematocrit value [3]: no significant difference
weight of the heart [3]: no significant difference
weight of the liver [3]: no significant difference
ALT (GPT) [4]: no significant difference
AST (GOT) [4]: no significant difference
erythrocyte count [4]: no significant difference
hematocrit value [4]: no significant difference
weight of the heart [4]: no significant difference
weight of the liver [4]: no significant difference
weight of the white fat around the uterus [4]: no significant difference
Solubility (mg/ml) [5]: 25 or above mg/ml
